Columns and labels:
Settings in all cases: 25 µM pACP, 24 h, maintenance medium 1% FBS, ratio of viability to vehicle (PBS), at least three technical repetitions
SK-BR-3 = test: MTT primary screening of anticancer activity, SK-BR-3; type: cell-based
Description: (§1) We successfully chemically synthesized 40 pACPs for the purpose of in vitro or in vivo characterization of their potential anticancer efficacy. In the initial step, we conducted an in vitro primary screen of these 40 pACPs using a panel of 16 different cancer cell lines, including four human CRC lines (HT29, Caco2, HCT116, and […]), as well as 12 other cancer models (Table S4, Supporting Information). We deliberately selected a diverse panel of cell lines to assess the effect of pACPs across various genetic backgrounds. Briefly, the cancer cells were cultured in specific media (details provided in the Experimental Section) and then treated with pACPs at a final concentration of 25 µM. Peptides with minimum effective inhibition concentrations >25 µM were considered non‐ACPs. After exposure to pACPs, the survival rate of the cancer cells was measured using the MTT assay. Remarkably, 39 out of the 40 pACPs (97.5%) induced at least 20% inhibition in at least one cell line (Figure 3a and Table S5, Supporting Information). […] Thus, our method successfully identified pACPs with a very high rate of anticancer effects across various cancer cell lines.
(§2) To evaluate the activity of the 40 potentially effective pACPs, a panel of 16 cancer cell lines was treated, including human CRC cell lines (HT29, Caco‐2, HCT116). Details of the cell lines used, respective media, and culture conditions were presented in Table S1 (Supporting Information). Once the cells reached 60% confluence, it was incubated with each candidate peptide at a concentration of 25 µM pACPs for 24 h. Concurrently, the complete medium was replaced with a maintenance medium containing only 1% FBS. Subsequently, the viability of each cell line using the MTT Cell Proliferation and Cytotoxicity Assay Kit according to the manufacturer's instructions was assessed. […] For the CRC cell line CT26, it was calculated the CC50 value using two peptides (pACP1780 and pACP2283) with relevant data presented in Table S6 (Supporting Information). The calculation was performed using an online tool: https://www.aatbio.com/tools/ic50‐calculator.

MDA-MB-468 = test: MTT primary screening of anticancer activity, MDA-MB-468; type: cell-based
Description: as §1, §2

Caco2 = test: MTT primary screening of anticancer activity, Caco2; type: cell-based, Human
Description: as §1, §2

HCT116 = test: MTT primary screening of anticancer activity, HCT116; type: cell-based, Human
Description: as §1, §2

HT29 = test: MTT primary screening of anticancer activity, HT29; type: cell-based, Human
Description: as §1, §2

LCC = test: MTT primary screening of anticancer activity, LCC; type: cell-based
Description: as §1, §2

Hela = test: MTT primary screening of anticancer activity, Hela; type: cell-based, Human
Description: as §1, §2

T47D = test: MTT primary screening of anticancer activity, T47D; type: cell-based
Description: as §1, §2

MDA-MB-231 = test: MTT primary screening of anticancer activity, MDA-MB-231; type: cell-based
Description: as §1, §2

MCF7 = test: MTT primary screening of anticancer activity, MCF7; type: cell-based
Description: as §1, §2

EFM192A = test: MTT primary screening of anticancer activity, EFM192A; type: cell-based
Description: as §1, §2

CT26 = test: MTT primary screening of anticancer activity, CT26; type: cell-based, Murine
Description: as §1, §2

MDA-MB-436 = test: MTT primary screening of anticancer activity, MDA-MB-436; type: cell-based
Description: as §1, §2

BT474 = test: MTT primary screening of anticancer activity, BT474; type: cell-based
Description: as §1, §2

B16 = test: MTT primary screening of anticancer activity, B16; type: cell-based, Mouse
Description: as §1, §2

MDA-MB-453 = test: MTT primary screening of anticancer activity, MDA-MB-453; type: cell-based
Description: as §1, §2

Sequence	Survival rate of cancer cells in primary screening (SK-BR-3)	Survival rate of cancer cells in primary screening (MDA-MB-468)	Survival rate of cancer cells in primary screening (Caco2)	Survival rate of cancer cells in primary screening (HCT116)	Survival rate of cancer cells in primary screening (HT29)	Survival rate of cancer cells in primary screening (LCC)	Survival rate of cancer cells in primary screening (Hela)	Survival rate of cancer cells in primary screening (T47D)	Survival rate of cancer cells in primary screening (MDA-MB-231)	Survival rate of cancer cells in primary screening (MCF7)	Survival rate of cancer cells in primary screening (EFM192A)	Survival rate of cancer cells in primary screening (CT26)	Survival rate of cancer cells in primary screening (MDA-MB-436)	Survival rate of cancer cells in primary screening (BT474)	Survival rate of cancer cells in primary screening (B16)	Survival rate of cancer cells in primary screening (MDA-MB-453)
AAGVSIEIHISLTLFTQVKCVARSQCAAEGAGLRHIKVAALQSCSRRRAH [pACP2]	1.00	1.00	1.00	1.00	1.00	1.00	1.00	0.71	1.00	1.00	1.00	1.00	1.00	1.00	1.00	1.00
CRLCTHGNVSACVLGKNAVFSVSAHNSDCPQPTCDFSSPLEECLESS [pACP177]	1.00	1.00	1.00	1.00	1.00	1.00	1.00	0.59	1.00	1.00	1.00	1.00	1.00	1.00	0.73	1.00
DRGERVAHGLDLLDGVVAEGVAAKGDDNTIGLAKRLRHCWNPFCKRPTTH [pACP253]	1.00	0.76	1.00	1.00	1.00	1.00	1.00	0.70	1.00	1.00	1.00	1.00	1.00	1.00	1.00	1.00
DSYGNRTEIERKIWRRYPCGYSCGTGEVKCDKEEWKKEYW [pACP264]	1.00	1.00	1.00	1.00	1.00	1.00	1.00	0.70	1.00	0.72	1.00	1.00	1.00	1.00	0.73	1.00
ERRVGYSWYGTWGNKVLKKYPEWLRRLTEKK [pACP341]	1.00	0.74	1.00	1.00	1.00	1.00	1.00	1.00	1.00	0.66	1.00	0.60	1.00	0.62	0.74	1.00
GLTSESVKSRCVKCLLYIKKSGATHDDNALHRTYCRNNCYRL [pACP550]	1.00	1.00	1.00	1.00	1.00	1.00	1.00	1.00	1.00	1.00	1.00	1.00	1.00	1.00	0.78	1.00
GNPAKQEIKVPGALGKGSCVQSGAGVGPRCRVPCGPLSGGMALFCYE [pACP555]	1.00	1.00	1.00	1.00	1.00	1.00	1.00	0.74	1.00	1.00	1.00	1.00	1.00	1.00	0.75	1.00
GVPMGSVIKKRRKRMAKKKHRKLLRKTRHQRRNKK [pACP593]	1.00	1.00	1.00	1.00	1.00	1.00	0.74	0.71	1.00	1.00	1.00	1.00	1.00	0.78	1.00	0.63
GWKKSQCCRNGFYRERGQQQAKNFMSQESFPVRENGE [pACP602]	1.00	1.00	1.00	1.00	1.00	1.00	1.00	0.70	1.00	0.77	1.00	1.00	1.00	1.00	0.80	1.00
